Laboratory results as given in the SangsterLogP compilation.

Assay: method code SF, from DOI: 10.1246/bcsj.55.1489
Settings: pH 7.0

Point of comparison: COc1cc(C)n(-c2ccncn2)n1, logD 2.21. Against it:
- COc1cc(-n2nc(C)cc2OC)nc(OC)n1 — lower, 1.86
- COc1nc(C)cc(-n2[nH]c(C)cc2=O)n1 — lower, 1.03
- COc1cc(-n2c(C)cc(=O)n2C)nc(C)n1 — lower, 0.38
- COc1cc(C)nn1-c1nc(C)cc(C)n1 — lower, 0.73
- COc1ccnc(-n2nc(C)cc2OC)n1 — lower, 1.01
- COc1cc(-n2nc(C)cc2OC)ncn1 — lower, 1.53
- COc1cc(C)n(-c2nc(C)cc(C)n2)n1 — lower, 1.82
- Cc1cc(-n2c(=O)cc(C)n2C)nc(C)n1 — lower, 0.24
- Cc1cc(C)nc(-n2c(C)cc(=O)n2C)n1 — lower, 0.51
- COc1cc(C)nn1-c1ccncn1 — lower, 0.5
- COc1cc(-n2c(=O)cc(C)n2C)nc(C)n1 — lower, 0.7
- COc1cc(-n2c(=O)cc(C)n2C)ncn1 — lower, 0.3
